Data: the supplement of paper PMC10627819

Experiments:
S. aureus DSM 20231 [1] = assay: fitness (endpoint OD595 vs no drug) (fraction); higher = more growth
Summary of the method: (§1)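 In 384-well plates at 37 °C, cultures began at OD595 0.01 in 30 µl, with 55 µl used for S. pneumoniae. OD595 readings every 30 min for 14 h were corrected by the first reading. Fitness divides the stationary-phase transition optical density by the robust mean of no-drug control wells. The result is capped at 1.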

S. aureus Newman [2] = assay: Bliss interaction score (quartile over a dose matrix) (fitness difference); higher = more antagonism (negative = synergy)
Summary of the method: (§2)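 Each OD595 reading at entry into stationary phase was scaled to the robust mean of the untreated wells on its plate, with a ceiling of 1. These ratios define fitness, and single-drug fitness was inferred from combinations. The Bliss score compares observed fitness with the product-based expectation and is reported as quartiles across all replicate types, technical, biological and donor/recipient.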

S. aureus DSM 20231 [3] = assay: as above
Summary of the method: as §2

S. pneumoniae D39V [4] = assay: as above
Summary of the method: as §2

B. subtilis 168 [5] = assay: as above
Summary of the method: as §2

S. aureus Newman [6] = assay: fitness (endpoint OD595 vs no drug) (fraction); higher = more growth
Summary of the method: as §1

S. pneumoniae D39V [7] = assay: as above
Summary of the method: as §1

B. subtilis 168 [8] = assay: as above
Summary of the method: as §1
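For Bliss interaction score (quartile over a dose matrix) in this document: first quartile when negative (synergy) and third quartile when positive (antagonism).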
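For fitness (endpoint OD595 vs no drug) in this document: OD595 on entry to stationary phase over no-drug wells; at most 1.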

O=C(N[C@H](CO)[C@H](O)c1ccc([N+](=O)[O-])cc1)C(Cl)Cl [Chloramphenicol] + CC(=O)NC[C@H]1CN(c2ccc(N3CCOCC3)c(F)c2)C(=O)O1 [Linezolid]
fitness, S. aureus DSM 20231 [1]
Details	first compound 0.75 µg/mL	first compound 1.5 µg/mL	first compound 3 µg/mL
partner 0.125 µg/mL	0.609	0.321	0.11
partner 0.25 µg/mL	0.353	0.227	0.0855
partner 0.5 µg/mL	0.128	0.119	0.0711

S. aureus DSM 20231 [1], partner 1 µg/mL, one replicate
Details	fitness
first compound 0.75 µg/mL	0.0506
first compound 1.5 µg/mL	0.0474
first compound 3 µg/mL	0.0396

Details	Bliss interaction score
B. subtilis 168 [5]	-0.141
S. aureus DSM 20231 [3]	-0.152
S. aureus Newman [2]	-0.112
S. pneumoniae D39V [4]	0.0462

O=C(N[C@H](CO)[C@H](O)c1ccc([N+](=O)[O-])cc1)C(Cl)Cl [Chloramphenicol] + CCC[C@@H]1C[C@@H](C(=O)N[C@@H]([C@H]2O[C@H](SC)[C@H](O)[C@@H](O)[C@H]2O)[C@@H](C)O)N(C)C1 [Lincomycin]
fitness, S. aureus DSM 20231 [1]
Details	first compound 0.75 µg/mL	first compound 1.5 µg/mL	first compound 3 µg/mL
partner 0.1 µg/mL	0.729	0.57	–
partner 0.2 µg/mL	0.563	0.378	–
partner 0.4 µg/mL	0.215	0.167	0.0709

Details	Bliss interaction score
B. subtilis 168 [5]	0.11
S. aureus DSM 20231 [3]	0.0462
S. aureus Newman [2]	-0.167
S. pneumoniae D39V [4]	0.105

CCC[C@@H]1C[C@@H](C(=O)N[C@@H]([C@H]2O[C@H](SC)[C@H](O)[C@@H](O)[C@H]2O)[C@H](C)Cl)N(C)C1 [Clindamycin] + CN(C)c1cc(NC(=O)CNC(C)(C)C)c(O)c2c1C[C@H]1C[C@H]3[C@H](N(C)C)C(O)=C(C(N)=O)C(=O)[C@@]3(O)C(O)=C1C2=O [Tigecycline]
Details	fitness
B. subtilis 168 [8], first compound 0.0625 µg/mL, partner 0.039 µg/mL	0.596
B. subtilis 168 [8], first compound 0.0625 µg/mL, partner 0.078 µg/mL	0.537
B. subtilis 168 [8], first compound 0.0625 µg/mL, partner 0.156 µg/mL	0.538
B. subtilis 168 [8], first compound 0.125 µg/mL, partner 0.039 µg/mL	0.387
B. subtilis 168 [8], first compound 0.125 µg/mL, partner 0.078 µg/mL	0.38
B. subtilis 168 [8], first compound 0.125 µg/mL, partner 0.156 µg/mL	0.374
B. subtilis 168 [8], first compound 0.25 µg/mL, partner 0.039 µg/mL	0.378
B. subtilis 168 [8], first compound 0.25 µg/mL, partner 0.078 µg/mL	0.365
B. subtilis 168 [8], first compound 0.25 µg/mL, partner 0.156 µg/mL	0.369
S. aureus Newman [6], first compound 0.0312 µg/mL, partner 0.039 µg/mL	0.708
S. aureus Newman [6], first compound 0.0312 µg/mL, partner 0.078 µg/mL	0.715
S. aureus Newman [6], first compound 0.0312 µg/mL, partner 0.156 µg/mL	0.709
S. aureus Newman [6], first compound 0.125 µg/mL, partner 0.039 µg/mL	0.118
S. aureus Newman [6], first compound 0.125 µg/mL, partner 0.078 µg/mL	0.112
S. aureus Newman [6], first compound 0.125 µg/mL, partner 0.156 µg/mL	0.113
S. pneumoniae D39V [7], first compound 0.0125 µg/mL, partner 0.325 µg/mL	0.668
S. pneumoniae D39V [7], first compound 0.0125 µg/mL, partner 0.65 µg/mL	0.695
S. pneumoniae D39V [7], first compound 0.0125 µg/mL, partner 1.3 µg/mL	0.652
S. pneumoniae D39V [7], first compound 0.015 µg/mL, partner 0.65 µg/mL	0.753
S. pneumoniae D39V [7], first compound 0.015 µg/mL, partner 1.3 µg/mL	0.755
S. pneumoniae D39V [7], first compound 0.015 µg/mL, partner 2.6 µg/mL	0.815
S. pneumoniae D39V [7], first compound 0.025 µg/mL, partner 0.325 µg/mL	0.503
S. pneumoniae D39V [7], first compound 0.025 µg/mL, partner 0.65 µg/mL	0.461
S. pneumoniae D39V [7], first compound 0.025 µg/mL, partner 1.3 µg/mL	0.442
S. pneumoniae D39V [7], first compound 0.03 µg/mL, partner 0.65 µg/mL	0.653
S. pneumoniae D39V [7], first compound 0.03 µg/mL, partner 1.3 µg/mL	0.66
S. pneumoniae D39V [7], first compound 0.03 µg/mL, partner 2.6 µg/mL	0.673
S. pneumoniae D39V [7], first compound 0.05 µg/mL, partner 0.325 µg/mL	0.233
S. pneumoniae D39V [7], first compound 0.05 µg/mL, partner 0.65 µg/mL	0.2
S. pneumoniae D39V [7], first compound 0.05 µg/mL, partner 1.3 µg/mL	0.189
S. pneumoniae D39V [7], first compound 0.06 µg/mL, partner 0.65 µg/mL	0.551
S. pneumoniae D39V [7], first compound 0.06 µg/mL, partner 1.3 µg/mL	0.557
S. pneumoniae D39V [7], first compound 0.06 µg/mL, partner 2.6 µg/mL	0.539

fitness, B. subtilis 168 [8], one replicate
Details	first compound 0.0039 µg/mL	first compound 0.0078 µg/mL	first compound 0.0156 µg/mL	first compound 0.0625 µg/mL	first compound 0.125 µg/mL	first compound 0.25 µg/mL
partner 0.039 µg/mL	0.986	0.866	0.862	–	–	–
partner 0.078 µg/mL	≥ 1	0.88	0.831	–	–	–
partner 0.125 µg/mL	–	–	–	0.809	0.656	0.44
partner 0.156 µg/mL	0.906	0.81	0.908	–	–	–
partner 0.25 µg/mL	–	–	–	0.722	0.575	0.342
partner 0.5 µg/mL	–	–	–	0.743	0.601	0.378

Details	Bliss interaction score
B. subtilis 168 [5]	-0.0489
S. aureus DSM 20231 [3]	-0.0949
S. aureus Newman [2]	-0.0653
S. pneumoniae D39V [4]	-0.0934

CCC[C@@H]1C[C@@H](C(=O)N[C@@H]([C@H]2O[C@H](SC)[C@H](O)[C@@H](O)[C@H]2O)[C@H](C)Cl)N(C)C1 [Clindamycin] + CN[C@@H]1[C@H](O[C@H]2[C@H](O[C@H]3[C@H](O)[C@@H](O)[C@H](N=C(N)N)[C@@H](O)[C@@H]3N=C(N)N)O[C@@H](C)[C@]2(O)C=O)O[C@@H](CO)[C@H](O)[C@H]1O [Streptomycin]
fitness
Details	partner 1 µg/mL	partner 2 µg/mL	partner 4 µg/mL	partner 8 µg/mL
B. subtilis 168 [8], first compound 0.0625 µg/mL	–	0.531	0.082	0.0325
B. subtilis 168 [8], first compound 0.125 µg/mL	–	0.398	0.0693	0.0279
B. subtilis 168 [8], first compound 0.25 µg/mL	–	0.105	0.0596	0.0359
S. aureus Newman [6], first compound 0.0312 µg/mL	0.679	0.571	–	–
S. aureus Newman [6], first compound 0.125 µg/mL	0.123	0.0638	0.0582	–
S. pneumoniae D39V [7], first compound 0.0125 µg/mL	–	0.646	0.69	0.733
S. pneumoniae D39V [7], first compound 0.015 µg/mL	–	–	0.837	0.786
S. pneumoniae D39V [7], first compound 0.025 µg/mL	–	0.445	0.426	0.46
S. pneumoniae D39V [7], first compound 0.03 µg/mL	–	–	0.71	0.646
S. pneumoniae D39V [7], first compound 0.05 µg/mL	–	0.177	0.21	0.202
S. pneumoniae D39V [7], first compound 0.06 µg/mL	–	–	0.586	0.544

fitness, one replicate
Details	first compound 0.0039 µg/mL	first compound 0.0078 µg/mL	first compound 0.015 µg/mL	first compound 0.0156 µg/mL	first compound 0.03 µg/mL	first compound 0.06 µg/mL
B. subtilis 168 [8], partner 2 µg/mL	≥ 1	0.855	–	0.895	–	–
B. subtilis 168 [8], partner 4 µg/mL	≥ 1	1	–	0.951	–	–
B. subtilis 168 [8], partner 8 µg/mL	0.994	0.85	–	0.853	–	–
S. pneumoniae D39V [7], partner 2 µg/mL	–	–	0.889	–	0.767	0.621
S. pneumoniae D39V [7], partner 16 µg/mL	–	–	0.712	–	0.564	0.424

Details	Bliss interaction score
B. subtilis 168 [5]	-0.101
S. aureus DSM 20231 [3]	-0.0299
S. aureus Newman [2]	-0.0908
S. pneumoniae D39V [4]	-0.0581
